# Source: paper PMC3762675 (Chembiochem : a European journal of chemical biology, 2013)
# Biological target: p38 and MK2 (Homo sapiens, UniProt Q16539)
# Format: binding
# Conditions: competitor 10 μM, LTR 2 500 nM, p38 400 nM, MK2 400 nM, UV 30 min
# p38 and MK2, sequence (Q16539 whole entry): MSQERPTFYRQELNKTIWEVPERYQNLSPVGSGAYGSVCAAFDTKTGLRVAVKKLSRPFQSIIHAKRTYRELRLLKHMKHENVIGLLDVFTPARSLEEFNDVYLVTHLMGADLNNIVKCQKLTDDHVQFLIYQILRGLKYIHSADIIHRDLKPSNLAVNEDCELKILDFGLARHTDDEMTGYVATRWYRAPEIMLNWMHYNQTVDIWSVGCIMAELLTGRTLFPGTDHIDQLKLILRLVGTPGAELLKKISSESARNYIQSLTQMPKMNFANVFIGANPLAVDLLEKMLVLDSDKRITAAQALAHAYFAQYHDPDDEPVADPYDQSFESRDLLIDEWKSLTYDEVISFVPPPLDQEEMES
# p38 and MK2, sequence (P49137 whole entry partner): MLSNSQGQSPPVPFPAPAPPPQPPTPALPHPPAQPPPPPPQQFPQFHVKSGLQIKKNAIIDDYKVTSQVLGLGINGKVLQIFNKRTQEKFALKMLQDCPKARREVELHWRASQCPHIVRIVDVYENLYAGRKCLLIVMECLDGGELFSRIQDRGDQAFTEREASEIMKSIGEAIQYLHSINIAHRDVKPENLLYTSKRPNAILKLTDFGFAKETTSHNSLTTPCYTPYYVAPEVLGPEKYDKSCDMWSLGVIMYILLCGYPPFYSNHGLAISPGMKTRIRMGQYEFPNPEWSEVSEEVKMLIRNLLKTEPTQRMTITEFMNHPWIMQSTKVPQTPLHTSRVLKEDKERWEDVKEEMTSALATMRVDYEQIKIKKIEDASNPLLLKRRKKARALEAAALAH
row,blocking of labeling of p38 and MK2,Compound
1,does not completely block labeling,Cc1nc(Nc2ncc(C(=O)Nc3c(C)cccc3Cl)s2)cc(N2CCN(CCO)CC2)n1 [dasatinib]
2,do not block labeling,C#Cc1cccc(Nc2ncnc3cc(OCCOC)c(OCCOC)cc23)c1 [erlotinib]
